Data from patent US8765946B2, “Methods of preparing and using quinazoline and quinoline derivatives” (priority 2006, dated 2014).

What was measured:
[1] = biological target: T1, BT474 cells Her-2 receptor TK phosphorylation stimulated by Her-2 (Homo sapiens, UniProt P04626); experiment: Inhibition of BT474 cells Her-2 receptor TK phosphorylation; assay type: cell-based
T1 construct: against BT474 cells; endogenous in cells; host or cells: BT474 cells
Procedure: Following literature procedured, inhibitory activity of representative compounds against BT474 cells Her-2 receptor TK phosphorylation stimulated by Her-2 was measured, and partial results are listed in Table 6.

[2] = tested on: colorectal cancer LoVo cells; experiment: Cell growth inhibition assay (MTS assay), LoVo; assay type: cell-based; conditions: Homo sapiens, 48 hours
A431 cells [3] = experiment: Cell growth inhibition assay (MTS assay), A431; assay type: cell-based; conditions: Homo sapiens
[4] = biological target: T2, A431 cells EGFR-TK phosphorylation stimulated by EGF (Homo sapiens, UniProt P00533); experiment: Inhibition of cellular EGFR-TK phosphorylation stimulated by EGF in A431 cells; assay type: cell-based; conditions: for inhibition at 3 µM: A-431, concentration of 3 μM, A431 cells, EGF stimulated, one-time measurement at a single concentration (preliminary selection), NA = No activity, read-out: Inhibition Percent (%)
T2 construct: against A431 cells EGFR-TK; endogenous in cells; host or cells: A431 cells
T2 sequence (P00533 25-1210): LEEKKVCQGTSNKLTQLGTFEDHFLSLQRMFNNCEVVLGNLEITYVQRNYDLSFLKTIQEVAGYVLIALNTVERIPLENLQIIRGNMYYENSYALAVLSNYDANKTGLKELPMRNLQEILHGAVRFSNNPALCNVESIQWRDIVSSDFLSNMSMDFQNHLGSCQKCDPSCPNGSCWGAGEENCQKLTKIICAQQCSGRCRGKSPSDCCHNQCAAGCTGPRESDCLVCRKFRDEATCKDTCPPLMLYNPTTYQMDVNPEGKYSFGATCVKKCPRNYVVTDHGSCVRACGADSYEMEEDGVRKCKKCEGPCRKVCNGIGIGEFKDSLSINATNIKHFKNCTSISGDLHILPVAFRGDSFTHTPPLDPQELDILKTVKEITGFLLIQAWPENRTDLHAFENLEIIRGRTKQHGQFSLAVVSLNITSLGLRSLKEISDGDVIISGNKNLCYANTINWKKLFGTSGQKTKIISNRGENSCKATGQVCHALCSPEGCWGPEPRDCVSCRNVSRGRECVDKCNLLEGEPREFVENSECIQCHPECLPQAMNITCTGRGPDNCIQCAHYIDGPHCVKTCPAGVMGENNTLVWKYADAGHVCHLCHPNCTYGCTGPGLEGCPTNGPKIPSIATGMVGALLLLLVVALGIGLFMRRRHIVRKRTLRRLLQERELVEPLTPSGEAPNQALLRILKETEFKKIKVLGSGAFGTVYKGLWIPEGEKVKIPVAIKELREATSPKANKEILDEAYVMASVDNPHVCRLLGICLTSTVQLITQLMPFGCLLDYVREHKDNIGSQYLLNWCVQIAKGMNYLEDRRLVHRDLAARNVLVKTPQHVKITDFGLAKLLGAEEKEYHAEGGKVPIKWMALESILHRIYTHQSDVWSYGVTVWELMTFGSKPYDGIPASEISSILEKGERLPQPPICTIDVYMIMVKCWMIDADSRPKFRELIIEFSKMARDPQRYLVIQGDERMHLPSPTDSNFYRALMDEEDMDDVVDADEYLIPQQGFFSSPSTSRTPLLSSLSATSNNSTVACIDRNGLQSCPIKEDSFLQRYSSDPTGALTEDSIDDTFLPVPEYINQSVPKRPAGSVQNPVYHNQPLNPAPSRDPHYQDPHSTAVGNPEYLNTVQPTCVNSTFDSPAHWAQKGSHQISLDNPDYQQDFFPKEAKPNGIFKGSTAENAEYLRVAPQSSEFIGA
Procedure: Inhibition Experiment of Cellular Epidermal Growth Factor Receptor Tyrosine Kinase
1) A431 cells were cultured in a medium which was prepared by adding 10% FCS into another medium comprising 50% DMEM and 50% F12.
2) A431 cells grown in six-well plates were cultured in a serum-free medium for 24 hours. During the 24 hour period the medium was replenished once after 12 hours.
3) A solution containing a compound to be assessed was added the A431 cells and the cells were cultured for 2 hours, supplemented twice by a medium free of the compound, and then EGF (100 ng/well) was added, and cultured for 5 minutes.
4) A431 cell homogenate was prepared by Laemili buffer which comprised 2% sodium dodecyl sulfonate (SDS), 5% 2-mercaptoethanol, 10% glycerol and 5 mM Tris (pH 6.8).
(§1) 5) The A431 cell homogenate was heated for 5 minutes at 100° C.
6) Proteins in the A431 cell homogenates were separated by PAGE and transferred onto a nitrocellulose membrane, and an infrared reading was obtained.

BT474 cells [5] = experiment: Cell growth inhibition assay (MTS assay), BT474; conditions: Homo sapiens, BT-474, 48 h, read-out: Growth inhibition activity (EC50) BT474
Procedure: (§2) Cell Growth Inhibition Assay (MTS Assay)
(§3) A431: human epithelial adenocarcinoma cell strain; LoVo: human colorectal cancer cell strain; BT474: breast cancer; SK-Br-3: breast cancer; SIT solution (SIGMA); RPMI1640 culture solution; phosphoric acid buffer; Dimethyl Sulphoxide (DMSO); MTS solution (Promega), 96 well cell culture plate, representative anti-cancer compounds.
(§4) The cells were cultured overnight under the condition of 5% CO2 and 37° C. The next day, representative anti-cancer compounds (between 3 and 10 mM) were dissolved by dimethyl sulphoxide (DMSO) as a mother solution. Adriamycin was used as positive control, DMSO was used as negative control. According to experimental design, the mother solution was diluted and added to the 96 well cell culture plate, cultured for 48 hours under the condition of 5% CO2 and 37° C. Subsequently, 20 μL of MTS solution was added to each well of the 96 well cell culture plate and cultured for another 2 to 4 hours under the condition of 5% CO2 and 37° C. Absorbance was read at 490 nm wavelength, and converted into cell survival rate.
(§5) For each concentration, there two measurements were taken and the average was obtained.

SK-Br-3 cells = experiment: Cell growth inhibition assay (MTS assay), SK-Br-3; conditions: Homo sapiens, SK-BR-3, 48 h, read-out: Growth inhibition activity (EC50) SK-Br-3
Procedure: as §2, §3, §4, §5

[6] = biological target: T2, A431 cells EGFR-TK phosphorylation stimulated by EGF; experiment: Irreversible inhibition of cellular EGFR-TK (A431 cells, inhibition and recovery); assay type: cell-based; conditions: for Inhibition percent(%): A431 cells, 2 hours with compound, supplemented twice by compound-free medium, then EGF; for Activity (irreversible or reversible inhibitor): A431 cellular model test
Procedure: Irreversible Inhibition of Cellular Epidermal Growth Factor Receptor Tyrosine Kinase (EGFR-TK)
1) A431 cells were cultured in a medium prepared by adding 10% FCS into another medium comprising 50% DMEM and 50% F12.
2) The A431 cells grown in six-well plates were cultured in a serum-free medium for 24 hours, during the period the medium was replenished once after 12 hours.
3) A solution containing a compound to be assessed was added to the A431 cells and cultured for 2 hours, supplemented twice by a medium free of the compound, and then EGF (100 ng/well) was added, and cultured for 5 minutes.
4) A431 cell homogenate was prepared by Laemili buffer which comprised 2% sodium dodecyl sulfonate (SDS), 5% 2-mercaptoethanol, 10% glycerol and 5 mM Tris; the pH value is 6.8.
as §1
6) Proteins in the A431 cell homogenates were separated by PAGE, transferred onto a nitrocellulose membrane, and an infrared reading was obtained.

BT474 cells [7] = experiment: BT-474 cell growth inhibition assay (SRB assay); assay type: cell-based; conditions: Homo sapiens, concentration of 3 μM, 72 h, read-out: Inhibition Percent (%)
Procedure: BT-474 Cell Growth Inhibition Assay (SRB Assay)
BT-474 human breast cancer cell lines were kindly provided by Dr. Changnian Liu, Pharmaron Beijing Co., Ltd.
BT-474 cells were cultured in 37° C., 5% CO2, saturated humidity until logarithmic phase. Discarded culture medium, washed cells once by PBS. Added 1 ml Trypsin/EDTA solution, stood at 37° C. for 5 min, allowed the cells to detach. Added culture medium, adjusted the cells density to 1×10^5 cells/ml.
Day 0, added 100 μl/well cells suspension to 96-well cell culture plates. Incubated overnight to let the cells attach completely.
Day 1, compounds (2 mM in DMSO as stock solution) was diluted to 20 μM in EMEM. Then a fourfold serial dilution was made. These diluted compounds were made as 10× reaction solutions, and the concentration of DMSO was kept at 1%.
Added 80 μl culture medium and 20 μl 10× compound reaction solution to the testing wells, or vehicle control to the control wells. Co-incubated cells with compounds for another 72 h.
Day 3, fixed cellular protein by the addition of 100 μl/well of 10% TCA (diluting from 50% TCA) at 4° C. for 1 h. Rinsed TCA using plate washer, and washed five times using distilled water. Removed the residual wash solution with a piece of absorbent paper. Added 100 μl/well 0.4% SRB solution, allowed a 15-30 min staining period. Removed the SRB, and washed the culture plates five times using 1% acetic acid. Removed the residual wash solution with a piece of absorbent paper. Air-dried the culture plates, dissolved the protein-bound dye with 100 μl/well of 10 mM Tris base solution. Shook the plates until the dye was dissolved completely.

A431 cells [8] = experiment: A431 cell growth inhibition assay (MTT assay); assay type: cell-based; conditions: Homo sapiens
Method in brief: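 A431 epidermoid carcinoma cells in DMEM/F12 (1:1) with 10% FBS were seeded at 2.5×10^4 cells/mL, attached overnight, then exposed to compound (final 10 μM to 1.52 nM) for 72 h at 37° C, 5% CO2. Viability was read by MTT (0.5 mg/mL, 4 h), formazan dissolved in DMSO, absorbance 490 nm.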

[9] = A-431, A431 cells, MTS, 48 hours, read-out: Growth inhibition activity EC50
[10] = A431 cells EGFR-TK phosphorylation stimulated by EGF (Table 4)
[11] = A431 cells EGFR-TK phosphorylation stimulated by EGF (Table 5)

T1 sequence (P04626 23-1255): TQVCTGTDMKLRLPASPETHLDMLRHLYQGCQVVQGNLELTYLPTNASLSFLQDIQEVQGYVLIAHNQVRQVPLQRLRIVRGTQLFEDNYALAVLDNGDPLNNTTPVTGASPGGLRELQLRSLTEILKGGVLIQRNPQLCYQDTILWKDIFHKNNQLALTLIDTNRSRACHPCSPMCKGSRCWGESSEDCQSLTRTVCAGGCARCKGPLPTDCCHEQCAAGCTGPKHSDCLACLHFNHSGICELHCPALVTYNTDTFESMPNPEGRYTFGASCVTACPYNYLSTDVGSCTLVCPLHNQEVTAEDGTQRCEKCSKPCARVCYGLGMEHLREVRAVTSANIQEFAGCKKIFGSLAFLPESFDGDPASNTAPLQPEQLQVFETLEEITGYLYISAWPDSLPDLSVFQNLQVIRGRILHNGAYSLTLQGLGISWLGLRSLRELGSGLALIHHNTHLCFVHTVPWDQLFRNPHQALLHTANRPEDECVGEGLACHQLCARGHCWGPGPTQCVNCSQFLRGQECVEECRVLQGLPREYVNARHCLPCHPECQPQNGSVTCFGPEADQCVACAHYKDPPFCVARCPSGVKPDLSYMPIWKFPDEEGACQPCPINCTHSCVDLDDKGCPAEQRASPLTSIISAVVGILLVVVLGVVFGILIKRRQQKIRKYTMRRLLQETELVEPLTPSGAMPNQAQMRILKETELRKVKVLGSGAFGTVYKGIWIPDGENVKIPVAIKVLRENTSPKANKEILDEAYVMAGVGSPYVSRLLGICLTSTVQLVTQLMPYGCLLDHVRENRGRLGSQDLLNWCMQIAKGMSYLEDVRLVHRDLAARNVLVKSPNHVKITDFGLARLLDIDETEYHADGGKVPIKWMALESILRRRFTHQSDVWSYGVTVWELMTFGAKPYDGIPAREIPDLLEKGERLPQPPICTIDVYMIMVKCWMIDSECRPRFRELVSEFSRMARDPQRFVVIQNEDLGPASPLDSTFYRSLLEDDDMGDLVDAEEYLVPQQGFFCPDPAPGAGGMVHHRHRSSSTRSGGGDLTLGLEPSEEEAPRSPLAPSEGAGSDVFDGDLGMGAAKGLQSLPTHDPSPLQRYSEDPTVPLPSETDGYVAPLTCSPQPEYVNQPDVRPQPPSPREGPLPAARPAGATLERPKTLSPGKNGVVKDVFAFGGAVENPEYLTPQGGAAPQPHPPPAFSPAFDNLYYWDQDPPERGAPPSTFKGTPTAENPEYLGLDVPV

Row | EC50 [1] | EC50 [2] | EC50 (A431 cells [3]; [9]) | inhibition at 3 µM [4] | EC50 (BT474 cells [5]) | EC50 (SK-Br-3 cells) | SMILES | further results
1 | 820 nM | 1800 nM | 0.09 µM | 97% | 1310 nM | 800 nM | COc1cc2ncnc(Nc3ccc(F)c(Cl)c3)c2cc1NC(=O)C=C1CCN(C)CC1 [Example 72, N-(4-(3-chloro-4-fluorophenylamino)-7-methoxyquinazolin-6-yl)-2-(1-methylpiperidin-4-ylidene)acetamide] | 
2 | 180 nM | 7000 nM | 3 µM |  | 1570 nM | 530 nM | COc1cc2ncnc(Nc3ccc(OCc4ccccn4)c(Cl)c3)c2cc1NC(=O)C=C1CCNCC1 [Example 108, N-(4-(3-chloro-4-(pyridin-2-ylmethoxy)phenylamino)-7-methoxyquinazolin-6-yl)-2-(piperidin-4-ylidene)acetamide] | 
3 |  | 7600 nM | 0.12 µM | 94% |  |  | C#Cc1cccc(Nc2ncnc3cc(OC)c(NC(=O)C=C4CCN(C)CC4)cc23)c1 [Example 51, N-(4-(3-ethynylphenylamino)-7-methoxyquinazolin-6-yl)-2-(1-methylpiperidin-4-ylidene)acetamide] | 
4 | 1700 nM | 8000 nM | 0.63 µM | 82% | 21500 nM | 2310 nM | COCCN1CCC(=CC(=O)Nc2cc3c(Nc4ccc(F)c(Cl)c4)ncnc3cc2OC)CC1 [Example 73, N-(4-(3-chloro-4-fluorophenylamino)-7-methoxyquinazolin-6-yl)-2-(1-(2-methoxyethyl)piperidin-4-ylidene)acetamide] | 
5 |  |  | 0.6 µM | 87% |  |  | O=C(C=C1CCNCC1)Nc1ccc2ncnc(Nc3ccc(F)c(Cl)c3)c2c1 [Example 32, N-(4-(3-chloro-4-fluorophenylamino)quinazolin-6-yl)-2-(piperidin-4-ylidene)acetamide] | Inhibition percent(%) [6]: 78%; Activity (irreversible or reversible inhibitor) [6]: Irreversible inhibitor; EC50 [4, 10]: 90 nM; EC50 [4, 11]: 90 nM
6 |  |  |  |  | 120 nM | 70 nM | CS(=O)(=O)CCNCc1ccc(-c2ccc3ncnc(Nc4ccc(OCc5cccc(F)c5)c(Cl)c4)c3c2)o1 [Lapatinib, reference compound] | EC50 (A431 cells [3]; A-431, 48 h, read-out: Growth inhibition activity EC50 (μM)): 1.19 µM
7 | 480 nM |  |  | 44% |  |  | COc1cc2ncnc(Nc3ccc(OCc4cccc(F)c4)c(Cl)c3)c2cc1NC(=O)C=C1CCNCC1 [Example 105, N-(4-(4-(3-fluorobenzyloxy)-3-chlorophenylamino)-7-methoxyquinazolin-6-yl)-2-(piperidin-4-ylidene)acetamide] | 
8 |  | 3100 nM | 0.11 µM |  |  |  | CCOc1cc2ncc(C#N)c(Nc3cccc(Br)c3)c2cc1NC(=O)C=C1CCNCC1 [Example 154, N-(4-(3-bromophenylamino)-3-cyano-7-ethoxyquinolin-6-yl)-2-(piperidin-4-ylidene)acetamide] | 
9 | 350 nM | 1500 nM | 0.11 µM | 91% | 610 nM | 520 nM | COc1cc2ncnc(Nc3ccc(F)c(Cl)c3)c2cc1NC(=O)C=C1CCNCC1 [Example 43, N-(4-(3-chloro-4-fluorophenylamino)-7-methoxyquinazolin-6-yl)-2-(piperidin-4-ylidene)acetamide] | 
10 |  |  | 0.1 µM | 94% |  |  | O=C(C=C1CCNCC1)Nc1ccc2ncnc(Nc3cccc(Br)c3)c2c1 [Example 33, N-(4-(3-bromophenylamino)quinazolin-6-yl)-2-(piperidin-4-ylidene)acetamide] | Inhibition percent(%) [6]: 89%; Activity (irreversible or reversible inhibitor) [6]: Irreversible inhibitor; EC50 [4, 10]: 38 nM; EC50 [4, 11]: 38 nM
11 |  | 1500 nM |  |  |  |  | COc1cccc2c1C(=O)c1c(O)c3c(c(O)c1C2=O)C[C@@](O)(C(=O)CO)C[C@@H]3O[C@H]1C[C@H](N)[C@H](O)[C@H](C)O1 [Adriamycin, reference compound] | 
12 |  | 3000 nM | 0.12 µM |  |  |  | C#Cc1cccc(Nc2ncnc3cc(OC)c(NC(=O)C=C4CCNCC4)cc23)c1 [Example 42, N-(4-(3-ethynylphenylamino)-7-methoxyquinazolin-6-yl)-2-(piperidin-4-ylidene)acetamide] | 
13 |  | 1600 nM | 0.014 µM | 94% |  |  | COc1cc2ncnc(Nc3cccc(Br)c3)c2cc1NC(=O)C=C1CCNCC1 [Example 38, N-(4-(3-bromophenylamino)-7-methoxyquinazolin-6-yl)-2-(piperidin-4-ylidene)acetamide] | 
14 | 260 nM |  |  | 46% |  |  | CCOc1cc2ncc(C#N)c(Nc3ccc(F)c(Cl)c3)c2cc1NC(=O)C=C1CCNCC1 [Example 150, N-(4-(3-chloro-4-fluorophenylamino)-3-cyano-7-ethoxyquinolin-6-yl)-2-(piperidin-4-ylidene)acetamide] | inhibition at 3 µM (BT474 cells [7]): 56%; EC50 (A431 cells [8]; A-431, 72 hours (Table 11)): 170 nM; inhibition at 3 µM (A431 cells [8]; A-431, concentration of 3 μM, 72 hours, read-out: Inhibition Percent (%)): 95%
